± gives the standard deviation.
Legend:
[1] = chemical recovery by SPE of plasma after PDMS sampling; higher = better extraction; settings: pooled human plasma, extraction method: HLB SPE of plasma after PES
[2] = chemical recovery from spiked human plasma; higher = better extraction; settings: pooled human plasma
[3] = chemical recovery into PDMS from spiked human plasma; higher = better extraction; settings: pooled human plasma, extraction method: PES with PDMS
[4] = extraction method: SPE only (HLB 96-well)
[5] = extraction method: SPE only (HLB 96-well), PES comparison experiment
[6] = extraction method: solvent precipitation (ACN + hexane)
[7] = extraction method: PES+SPE (3 d PDMS equilibration then HLB SPE)
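Throughout, for chemical recovery by SPE of plasma after PDMS sampling: over 400 spiked chemicals quantified by LC-HRMS or GC-HRMS via internal standard calibration, recovery relative to spike mix added to unspiked plasma extract to correct matrix effects.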

Compound | chemical recovery by SPE of plasma ([1]; equilibration time (d): 1) [%] | chemical recovery by SPE of plasma ([1]; equilibration time (d): 3) [%] | chemical recovery by SPE of plasma ([1]; equilibration time (d): 6) [%] | chemical recovery [2, 4] [%] | chemical recovery [2, 5] [%] | chemical recovery [2, 6] [%] | chemical recovery into PDMS ([3]; equilibration time (d): 1) [%] | chemical recovery into PDMS ([3]; equilibration time (d): 3) [%] | chemical recovery into PDMS ([3]; equilibration time (d): 6) [%] | chemical recovery [2, 7] [%]
CCNc1nc(NC(C)(C)C)nc(SC)n1 [Terbutryn] | 1.3 ± 0.11 | 1.01 ± 0.25 | 0.516 ± 0.03 | 46.2 ± 2.5 | 48.2 ± 6.7 | 68.8 ± 3.2 | 21.7 ± 8.2 | 21.5 ± 6.8 | 22.9 ± 3.2 | 
C[C@]12CC[C@H]3[C@@H](CCC4=CC(=O)CC[C@@]43C)[C@@H]1CC[C@@H]2O [Testosterone] | 16 ± 3.3 | 14.5 ± 1.6 | 8.83 ± 2.7 |  | 52.8 ± 8.8 |  | 29.7 ± 1.9 | 35.7 ± 2.2 | 35.6 ± 0.61 | 
NC(=O)/N=C1\SCCN1Cc1ccc(Cl)nc1 [Thiacloprid amide] | 51.1 ± 5.3 | 53.4 ± 4.1 | 47 ± 2.8 | 33.6 ± 3.3 | 51.2 ± 7 | 78 ± 3.3 | 2.46 ± 0.75 | 4 ± 1.4 | 4.83 ± 0.88 | 42.5 ± 3.4
N#C/N=C1\SCCN1Cc1ccc(Cl)nc1 [Thiacloprid] | 39.3 ± 6 | 33.4 ± 2.5 | 25.1 ± 4.8 | 43.4 ± 3.5 | 55.7 ± 4.2 | 79.2 ± 2.9 | 18.1 ± 1.4 | 26.3 ± 4.2 | 29.8 ± 2.2 | 55.5 ± 5.8
CC(=O)c1cc2c(cc1C)C(C)(C)C(C)CC2(C)C (stereo not drawn) [Tonalide] | 0.526 ± 0.91 |  |  | 17.1 ± 5 | 22.3 ± 6.1 |  | 49 ± 3.7 | 48.1 ± 5.2 | 55.1 ± 2.9 | 41.1 ± 12
O=C(Nc1ccc(Cl)cc1)Nc1ccc(Cl)c(Cl)c1 [Triclocarban] | 29.8 ± 8.2 | 28.2 ± 4.9 | 24.3 ± 4 | 35 ± 5 | 25.7 ± 4.4 | 55.4 ± 4.4 | 5.9 ± 0.44 | 7.7 ± 0.6 | 8.27 ± 0.72 | 
Oc1cc(Cl)ccc1Oc1ccc(Cl)cc1Cl [Triclosan] | 24.8 ± 8.3 | 23.5 ± 2 | 20.2 ± 3.3 | 34.5 ± 1.1 | 40.3 ± 7.5 | 40 ± 3.5 | 16 ± 1.1 | 21 ± 0.84 | 22 ± 1.5 | 49.8 ± 4.3
CCOC(=O)CC(O)(CC(=O)OCC)C(=O)OCC [Triethylcitrate] | 18.1 ± 0.54 | 26.1 ± 4.4 | 17 ± 1.2 | 38.1 ± 0.71 | 43.2 ± 5 |  | 23.6 ± 0.89 | 23.1 ± 3.8 | 26.2 ± 2.7 | 32.4 ± 8.6
CCOP(=O)(OCC)OCC [Triethylphosphate] | 12.1 ± 7 | 15.8 ± 2.1 | 6.74 ± 1.1 | 18.9 ± 3.4 | 16.6 ± 7.5 |  |  |  | 15 ± 4.8 | 
O=P(c1ccccc1)(c1ccccc1)c1ccccc1 [Triphenylphosphine oxide] | 8.28 ± 1.2 | 8.53 ± 0.92 | 6.26 ± 0.28 | 54.9 ± 1.4 | 51.6 ± 7.2 |  | 41 ± 1.5 | 44.6 ± 2.8 | 43.5 ± 1.5 | 58.6 ± 6.1
CCCOP(=O)(OCCC)OCCC [Tripropyl phosphate] | 1.52 ± 1 | 1.74 ± 0.42 | 1.1 ± 0.16 | 35 ± 7.1 | 26.4 ± 7.2 |  | 29.8 ± 6.3 | 35.3 ± 6.6 | 33.8 ± 2.4 | 
CC(CCl)OP(=O)(OC(C)CCl)OC(C)CCl (stereo not drawn) [Tris(1-chloro-2-propyl)phosphate] |  | 1.7 ± 2 | 3.1 ± 2.4 |  | 55 ± 8.9 |  | 34.1 ± 1.8 | 44.3 ± 3.9 | 43.7 ± 3.3 | 
O=P(OCCCl)(OCCCl)OCCCl [Tris(2-chloroethyl)phosphate] | 15 ± 1.6 | 15 ± 1.8 | 9.84 ± 0.88 | 47.4 ± 2.1 | 52.3 ± 5.5 | 69.9 ± 2.8 | 37.5 ± 1.4 | 39.8 ± 1.5 | 40.8 ± 2.8 | 52.1 ± 4.5
O=C1CCCC=CCCCCCCCCCC1 [Velvione] | 1.02 ± 7.1 |  |  | 0.134 ± 0.12 |  |  | 41.7 ± 2.9 | 43.1 ± 12 | 40.2 ± 13 | 
c1ccc(-c2cccc(-c3ccccc3)c2)cc1 [m-Terphenyl] | 1.91 ± 3.3 | 2.9 ± 2.5 | 2.74 ± 2.4 | 0.761 ± 0.18 | 2.42 ± 4.8 | 34.3 ± 1.4 | 90.2 ± 24 | 86.8 ± 18 | 101 ± 37 | 
c1ccc(-c2ccccc2-c2ccccc2)cc1 [o-Terphenyl] | 2.44 ± 1.2 | 2.46 ± 0.63 | 2.62 ± 0.75 | 12.9 ± 2.8 | 19.9 ± 5.7 |  | 81.9 ± 26 | 81.5 ± 8.2 | 88.8 ± 18 | 
Cc1ccccc1N [o-Toluidine] | 4.67 ± 6.8 | 1.92 ± 0.63 | 1.2 ± 0.91 | 6.06 ± 3.9 | 6.06 ± 5.9 | 17.2 ± 2.6 | 0.669 ± 0.41 | 0.533 ± 0.3 | 0.369 ± 0.35 | 
Cc1ccc(S(N)(=O)=O)cc1 [p-Toluenesulfonamide] | 51.8 ± 5.5 | 55.4 ± 4.7 | 52.8 ± 0.84 |  |  | 77.9 ± 3.1 | 2.17 ± 0.29 | 1.8 ± 0.5 | 2.08 ± 0.47 | 
